Results: patent US7101667B2, “Lanthanide binding tags” (Massachusetts Institute of Technology, priority 2001, dated 2006)

T1: RNAse S-protein (bovine, UniProt P61823 47-150)
T1 construct: range 21-124; Numbers count on mature RNAse A; also called Pro-S
T1 sequence (looked up): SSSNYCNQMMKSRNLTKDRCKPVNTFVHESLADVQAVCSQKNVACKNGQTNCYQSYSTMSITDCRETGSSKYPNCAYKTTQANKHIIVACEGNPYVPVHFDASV

T2: LBT-GPPP-S-Peptide
T2 chain: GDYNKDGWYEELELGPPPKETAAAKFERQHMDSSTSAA

B1: LBT-GPPP-S-Peptide (peptide)
peptide: T2 chain
notes: also called LBT-S-peptide fusion; LBT tagged S-peptide analog
B2: RNAse S-protein (protein)
chain: T1 sequence (looked up)

Tests used:
[1] = Tb^3+ affinity of LBT-S-peptide fusions by isothermal titration calorimetry; format: binding
Source text: The affinity of the LBT site for terbium in the context of the fusion peptide was also unchanged when compared with the unmodified LBT sequences with affinities in the low μM range.

[2] = Steady-state terbium fluorescence of LBT-S-peptide fusions compared to LBT1; format: physicochemical
Source text: Steady-state fluorescence experiments of the LBT-S-peptide fusions indicated minimal impact of the fusion on the terbium fluorescence compared to LBT1 (see Table 2).

[3] = Tb^3+ binding affinity of the disulfide constrained LBT
Experimental: Affinity is determined by titration with lanthanide and detection using fluorescence, circular dichroism, NMR or calorimetry. In the case of tightly binding sequences, it may be necessary to employ competition experiments.
The disulfide constained LBT, ACA-[…]-CAA (known as CC2) binds to Tb^3+ with a KD of 300 nM, an order of magnitude more tightly than other reported Ca-binding peptides. (Kanellis, et al. Arch. Biochem. Biophys. 1983, 220, 530-540; Lopez, et al. Proc. Natl. Acad. Sci. USA 2002, 99, 1298-1303).

[4] = Lanthanide affinity of free LBT and HIS-LBT-Ub by calorimetry; format: binding; conditions: read-out: KD for lanthanide ions
Source text: The purified LBT-protein conjugates were further studied to assess whether the fluorescence and binding properties of the LBT were preserved in the protein conjugates.

RNAse S-protein = biological target: T1, RNAse S-protein; experiment: isothermal titration calorimetry
LBT-GPPP-S-Peptide = biological target: T2, LBT-GPPP-S-Peptide
[5] = read-out: KD Tb^3+ S-Peptide, fusion peptide alone
[6] = read-out: KD Tb^3+ [S-Peptide/S-protein], peptide complexed with S-protein

Molecule	Kd [1, 5]	Kd [1, 6]	Fluorescence Relative to LBT1 [2]	also measured
CSCC[C@H](NC(=O)[C@H](Cc1c[nH]cn1)NC(=O)[C@H](CCC(N)=O)NC(=O)[C@H](CCCNC(=N)N)NC(=O)[C@H](CCC(=O)O)NC(=O)[C@H](Cc1ccccc1)NC(=O)[C@H](CCCCN)NC(=O)[C@H](C)NC(=O)[C@H](C)NC(=O)[C@H](C)NC(=O)[C@@H](NC(=O)[C@H](CCC(=O)O)NC(=O)[C@H](CCCCN)NC(=O)[C@@H]1CCCN1C(=O)[C@@H]1CCCN1C(=O)[C@@H]1CCCN1C(=O)CNC(=O)[C@H](CC(C)C)NC(=O)[C@H](CCC(=O)O)NC(=O)[C@H](CC(C)C)NC(=O)[C@H](CCC(=O)O)NC(=O)[C@H](CCC(=O)O)NC(=O)[C@H](Cc1ccc(O)cc1)NC(=O)[C@H](Cc1c[nH]c2ccccc12)NC(=O)CNC(=O)[C@H](CC(=O)O)NC(=O)[C@H](CCCCN)NC(=O)[C@H](CC(N)=O)NC(=O)[C@H](Cc1ccc(O)cc1)NC(=O)[C@H](CC(=O)O)NC(=O)CN)[C@@H](C)O)C(=O)N[C@@H](CC(=O)O)C(=O)N[C@@H](CO)C(=O)N[C@@H](CO)C(=O)N[C@H](C(=O)N[C@@H](CO)C(=O)N[C@@H](C)C(=O)N[C@@H](C)C(=O)O)[C@@H](C)O [LBT-GPPP-S-Peptide]	6.6 µM	6.7 µM	96%	–
ACA-DYNKDGWYEELE-CAA [CC2, cysteine constrained variant of LBT1]	–	–	–	Kd [3]: 300 nM
GDYNKDGWYEELEL [LBT1]	–	–	–	Kd [4]: 5 µM; KD Tb^3+ S-Peptide ([1]; fusion peptide alone): low μM
CSCC[C@H](NC(=O)[C@H](Cc1c[nH]cn1)NC(=O)[C@H](CCC(N)=O)NC(=O)[C@H](CCCNC(=N)N)NC(=O)[C@H](CCC(=O)O)NC(=O)[C@H](Cc1ccccc1)NC(=O)[C@H](CCCCN)NC(=O)[C@H](C)NC(=O)[C@H](C)NC(=O)[C@H](C)NC(=O)[C@@H](NC(=O)[C@H](CCC(=O)O)NC(=O)[C@H](CCCCN)NC(=O)[C@@H]1CCCN1C(=O)[C@@H]1CCCN1C(=O)[C@H](CC(C)C)NC(=O)[C@H](CCC(=O)O)NC(=O)[C@H](CC(C)C)NC(=O)[C@H](CCC(=O)O)NC(=O)[C@H](CCC(=O)O)NC(=O)[C@H](Cc1ccc(O)cc1)NC(=O)[C@H](Cc1c[nH]c2ccccc12)NC(=O)CNC(=O)[C@H](CC(=O)O)NC(=O)[C@H](CCCCN)NC(=O)[C@H](CC(N)=O)NC(=O)[C@H](Cc1ccc(O)cc1)NC(=O)[C@H](CC(=O)O)NC(=O)CN)[C@@H](C)O)C(=O)N[C@@H](CC(=O)O)C(=O)N[C@@H](CO)C(=O)N[C@@H](CO)C(=O)N[C@H](C(=O)N[C@@H](CO)C(=O)N[C@@H](C)C(=O)N[C@@H](C)C(=O)O)[C@@H](C)O [LBT-PP-S-Peptide]	3.3 µM	9.6 µM	86%	–
B1	–	–	–	Kd (RNAse S-protein): 300 nM
B2	–	–	–	catalytic activity of the reconstituted enzymes (cleavage of a fluorescent RNA substrate) (LBT-GPPP-S-Peptide): the S-protein/LBT-S-peptide construct has similar catalytic activity to the native RNAse S in the absence of Tb^+3; catalytic activity of the reconstituted enzymes (cleavage of a fluorescent RNA substrate) (LBT-PP-S-Peptide): the S-protein/LBT-S-peptide construct has similar catalytic activity to the native RNAse S in the absence of Tb^+3
